Measured values reported in ChEMBL document CHEMBL3045888, “Synthesis and anti-hypertensive activity of novel sulphadimidine derivatives” (Med Chem Res, 2012).
Calls of active or inactive are those of the source. The rule behind the calls is not given here.

The compounds below were run on Rattus norvegicus (assay: Antihypertensive activity in hypertensive Rattus norvegicus Sprague-Dawley (rat) model assessed as reduction in mean systolic blood pressure level at 0.3 mg/kg, ip after 1 hr by non-invasive tail cuff method). Conditions: Artery.
Format: functional, organism-based
Set-up: dose 0.3 mg/kg
COc1cc2nc(N3CCN(C(=O)c4ccco4)CC3)nc(N)c2cc1OC was tested, and the Activity was “Active”.
For CCN(CC)c1ccc(/N=N\c2ccc(S(=O)(=O)Nc3nc(C)cc(C)n3)cc2)cc1, the Activity was “Active”.
For CCNc1ccc(/N=N\c2ccc(S(=O)(=O)Nc3nc(C)cc(C)n3)cc2)cc1, the Activity was “Active”.
With Cc1cc(C)nc(NS(=O)(=O)c2ccc(/N=N\c3ccc(N(C)C)cc3)cc2)n1 the Activity was “Active”.
CCN(Cc1ccccc1)c1ccc(/N=N\c2ccc(S(=O)(=O)Nc3nc(C)cc(C)n3)cc2)cc1 was tested, and the Activity was “Active”.
